Cytotoxicity data for 70 molecules are collected here from ChEMBL document CHEMBL3507680, “University of Dundee, Gates Library screen for HepG2 cell viability”.

A short description of this data set: Human HepG2 cell viability assay in 384 well format. It is filed as toxicity, cell-based. Details: dose 125 nL, time 70.5 hour; cytotoxicity at 70.5 h: concentration not given beside the values. The note with it: HepG2 cells, read-out: Inhibition.
Consider `COCCCNS(=O)(=O)c1cccc(CSC)c1`, for which the cytotoxicity at 70.5 h was -16.6%.
As for `CN1CCN(C2CCN(CCOc3ccc(F)cc3)CC2)C1=O`, the cytotoxicity at 70.5 h came out at 18.4%.
Consider `CC1CCN(Cc2ccc(CNC(=O)c3ccn(C)c(=O)c3)cc2)CC1`, for which the cytotoxicity at 70.5 h was -9.84%.
For the molecule `CCCc1nnc(N2CCC3(CC2)CC(=O)NC(=O)C3)o1`, the cytotoxicity at 70.5 h was found to be 24.4%.
In the case of `COC(=O)c1cccc(NC(=O)CCn2nc(-c3cccs3)oc2=O)c1` it was 0.767%; in that of `CCn1c(N)nc2cc(C(=O)NCCc3sccc3C)cnc21`, -4.44%.
For the molecule `CC(=O)N(Cc1ncc(C)o1)C1CCN(CCc2cnn(C)c2)C1` (stereo not given), the cytotoxicity at 70.5 h was -11.2%.
With `COc1c(C2CCCN2c2ncnc3c2CCC3)c(C)nn1C` (stereo not given), the cytotoxicity at 70.5 h is -2.31%.
For `CCn1ccc(NC(=O)CN2C(=O)CC(C)(C)c3ccccc32)n1`, the cytotoxicity at 70.5 h is -8.59%.
Turning to `c1cnc(N2CC3(CCN(CC4CCOC4)CC3)c3ccccc32)nc1` (stereo not given), the cytotoxicity at 70.5 h was 0.807%.
Regarding `CC1(Cc2cccnc2)NCCc2[nH]cnc21` (stereo not given), the cytotoxicity at 70.5 h worked out at 10.5%.
In the case of `CCCn1nccc1-c1cc(C2CCN(C(C)=O)CC2)ccn1`, the cytotoxicity at 70.5 h was -8.34%.
Turning to `CC(=O)NCc1nnc2n1CCN(c1ncnc3c1CCC3)CC2`, the cytotoxicity at 70.5 h worked out at 25.3%.
In the case of `CCc1cnc(N2CCN(Cc3ccno3)CC2)s1`, the cytotoxicity at 70.5 h was -1.37%.
As to `Cc1nc2ccccn2c1CN1C[C@@H](CN2CCOCC2)[C@@H](CO)C1`, the cytotoxicity at 70.5 h came out at 28.6%.
For `N#CC1(C(=O)N2CCC(Nc3cccnn3)CC2)CCCCC1` the value was 0.814%; for `CC(C(=O)N1CCCN(Cc2cnn(C(C)C)c2)CC1)n1ccnc1` (stereo not given), 23.5%; for `N#Cc1cc(S(N)(=O)=O)ccc1NC1CCc2ccc(F)cc21` (stereo not given), 7.54%.
`CN(C)C(=O)N1CCC(C(=O)N2CCOC(CC3CCCCC3)C2)CC1` (stereo not given): the cytotoxicity at 70.5 h is -0.504%.
As to `N#Cc1ccccc1C(=O)N1C[C@@H](CN2CCCCCC2)[C@@H](CO)C1`, the cytotoxicity at 70.5 h was -7.65%.
As for `Fc1ccc(CN2CCCC2Cn2cncn2)c2ncccc12` (stereo not given), the cytotoxicity at 70.5 h was found to be 2.94%.
With `O=C(Nc1cc(F)ccc1OCC1CCCO1)c1ccccn1` (stereo not given), the cytotoxicity at 70.5 h was -8.61%.
In the case of `CO[C@H]1CCN(Cc2ccccn2)[C@@H]2CN(Cc3ccco3)C[C@H]12`, the cytotoxicity at 70.5 h is -20.1%.
With `Cc1cccc(CNC2CCN(CCc3ccncc3)CC2)c1C`, the cytotoxicity at 70.5 h was -3.09%.
Regarding `CC(Nc1cccc(CN2CCOC2=O)c1)C(=O)Nc1ccccc1F` (stereo not given), the cytotoxicity at 70.5 h was -7.83%.
`CC1CCN(C(=O)CSc2nc3c(cnn3CCO)c(=O)[nH]2)CC1`: the cytotoxicity at 70.5 h was 22.7%.
`CN(Cc1ccccc1F)Cc1cc2c(cc1Br)OCCO2`: the cytotoxicity at 70.5 h is -9.57%.
Take `Cc1ncccc1OC1(C(=O)NCCNc2ccccc2)CCNCC1`: the cytotoxicity at 70.5 h was -5.68%.
For `CCCS(=O)(=O)N1C[C@@H]2COC[C@]2(CN2CCOCC2)C1` the value was -10.5%.
As to `c1csc(N2CCN(c3ncnc4sccc34)CC2)n1`, the cytotoxicity at 70.5 h is -7.71%.
On to `O=C(CC1CCCO1)Nc1cccc(N2CCN(CC3CC3)CC2)c1` (stereo not given), for which the cytotoxicity at 70.5 h was found to be 0.099%.
On to `CC(NC(=O)NCCc1nc(C(F)(F)F)cs1)C(=O)N(C)C` (stereo not given), for which the cytotoxicity at 70.5 h was -7.19%.
Consider `CN1N=C(C(=O)Nc2cc(F)ccc2OCC2CCCO2)CCC1=O` (stereo not given), for which the cytotoxicity at 70.5 h was -20.2%.
Consider `CN1CCN(CC2CC2)C(=O)c2cnc(N3CCC(CO)CC3)nc21`, for which the cytotoxicity at 70.5 h was -4.14%.
In the case of `Cc1ccc(C)c(S(=O)(=O)CCNC2CCc3ncnn3C2)c1` (stereo not given) it was -0.666%.
On to `O=c1cc(CN2CCCC(CCc3c(F)cccc3F)C2)[nH]c(=O)[nH]1` (stereo not given), for which the cytotoxicity at 70.5 h was -8.15%.
Regarding `Cc1nnc2n1CCN(C(C(=O)NC1CC1)c1ccc(F)cc1)C2` (stereo not given), the cytotoxicity at 70.5 h was -3.54%.
In the case of `Cc1ccc(CCCC(=O)N2CCC(=O)Nc3cccnc32)s1` it was 12.9%.
Consider `CS(=O)(=O)c1ccc(C(O)CN2CCC(c3ccn[nH]3)CC2)cc1` (stereo not given), for which the cytotoxicity at 70.5 h was -17.4%.
Turning to `Cc1noc(C)c1CN1C(=O)[C@H]2CC[C@@H]1CN(Cc1cccnc1N)C2`, the cytotoxicity at 70.5 h is 16.1%.
For the molecule `O=C(Nc1ccccc1)c1cccc(S(=O)(=O)NC[C@@H]2C[C@H](F)CN2)c1`, the cytotoxicity at 70.5 h is 6.01%.
Turning to `CC(=O)N1CCC(NC(=O)NCc2ncc(-c3ccccc3)o2)CC1`, the cytotoxicity at 70.5 h is -3.53%.
For `Cc1nc(C(=O)N2CCCC2c2c(C)nn(C)c2C)ccc1C#N` (stereo not given), the cytotoxicity at 70.5 h is -7.57%.
As to `CCCN(CC(F)F)c1cc(COC)nc2ncnn12`, the cytotoxicity at 70.5 h is -9.58%.
For `CSCc1noc(CNC2CCCC(C)(C)C2)n1` (stereo not given) the value was -5.82%.
As for `CC(C(=O)NC1(C#N)CCCCC1)N1CCc2c(ncn2C2CC2)C1` (stereo not given), the cytotoxicity at 70.5 h was -8.12%.
For `COc1ccc(CN2CC(O)CN(C(=O)c3ccccc3)CC2=O)cc1` (stereo not given) the value was 7.16%; for `CCCn1ccnc1SCC(=O)NC(Cc1ccccc1)C(C)=O` (stereo not given), 1.89%.
As to `CC(C)[C@H](NC(=O)c1cccc(CCC(C)(C)O)c1)C(N)=O`, the cytotoxicity at 70.5 h is -2.04%.
`C[C@@H](NC(=O)c1cccs1)c1onc(-c2cccnc2)c1C(=O)O`: the cytotoxicity at 70.5 h was 2.92%.
In the case of `O=C(NCc1cccnc1)C1=NOC2(CCCN(CCO)C2)C1` (stereo not given), the cytotoxicity at 70.5 h is -10.7%.
For `CCN1CC(C(=O)N2CCc3cc(C(N)=O)n(C)c3C2)CC1=O` (stereo not given) the value was -2.91%.
For `Cc1ccc(NC(=O)N2CCCC(N(C)C)C2)c(Br)c1` (stereo not given), the cytotoxicity at 70.5 h was -3.97%.
Take `Cc1noc(C)c1CN1CCN(Cc2cccnc2)c2ncccc2C1`: the cytotoxicity at 70.5 h was -6.13%.
In the case of `CC(C)=CCN1CCOC(Cn2nc(C)cc2C)C1` (stereo not given), the cytotoxicity at 70.5 h was 15.4%.
Regarding `CNC(=O)c1ccc(OC)c(NCc2noc(-c3ccsc3)n2)c1`, the cytotoxicity at 70.5 h is -11.3%.
As for `O=C(c1ccncn1)N1CCC[C@]2(C[C@H](OCC3CC3)CO2)C1`, the cytotoxicity at 70.5 h is -15.2%.
Turning to `CC(C)COC(C)C(=O)NCCNS(C)(=O)=O` (stereo not given), the cytotoxicity at 70.5 h was -7.36%.
In the case of `O=C(c1ccccn1)N1CCC(Cc2cnc3[nH]ccc3c2)CC1`, the cytotoxicity at 70.5 h is -6.64%.
Consider `CNc1cc(N2CCCC2CNCc2ccco2)ncn1` (stereo not given), for which the cytotoxicity at 70.5 h is -1.02%.
For `CCOCCC(=O)N1CCCC(c2cc(C(F)(F)F)[nH]n2)C1` (stereo not given), the cytotoxicity at 70.5 h is -10.6%.
For the molecule `Cc1nc(C)n(CC2CCCN(Cc3cccc(F)c3F)C2)n1` (stereo not given), the cytotoxicity at 70.5 h is 2.26%.
As for `COc1ncc(NS(=O)(=O)c2ccc(OC)c(C)c2)c(OC)n1`, the cytotoxicity at 70.5 h amounted to 7.97%.
Turning to `COC(=O)CCCC(=O)N1CCC(CO)(CCc2ccccc2)CC1`, the cytotoxicity at 70.5 h is -11.9%.
For the molecule `COCCN1C2(CCN(C(=O)c3cccs3)C2)c2ccccc2S1(=O)=O` (stereo not given), the cytotoxicity at 70.5 h is 2.42%.
In the case of `Cc1ccc(Cl)c(NC(=O)c2cccc(CN3CC[C@H](O)C3)c2)c1` it was -5.5%.
Take `C1Cc2nc(CCNc3nc(C4CC4)nc4c3CCNCC4)sc2C1`: the cytotoxicity at 70.5 h is -4.01%.
For the molecule `N#Cc1cccnc1N1CCCN(CC(=O)N2CCNC(=O)C2)CC1`, the cytotoxicity at 70.5 h was -5.07%.
`COCCc1noc(C2CCN(C(=O)Nc3cccs3)CC2)n1`: the cytotoxicity at 70.5 h is -4.24%.
In the case of `C[C@@H]1CN(S(C)(=O)=O)C[C@]12CCN(Cc1cccnc1)C2=O` it was 14.9%.
